Among the data in the supplement of paper PMC10307832 are relative viability values, retold here.

What all share (assay): relative viability (nuclei count vs DMSO), 5 days (fraction); higher = more cells survive
Compound in the test “Alpelisib + Foretinib”: Cc1nc(NC(=O)N2CCC[C@H]2C(N)=O)sc1-c1ccnc(C(C)(C)C(F)(F)F)c1 [Alpelisib] + COc1cc2c(Oc3ccc(NC(=O)C4(C(=O)Nc5ccc(F)cc5)CC4)cc3F)ccnc2cc1OCCCN1CCOCC1 [Foretinib] (partner 0.25 µM)
The method in brief: (§1)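 Lung cancer cell lines were seeded in 1536-well plates and dosed by pin tool the next day, with either a single drug or a fixed anchor-drug dose combined with five library-drug doses (not always all listed) spaced in √10 steps. Five days later, one step fixed the cells and stained their nuclei (final 0.05% Triton X-100, 1% formaldehyde, 1 ug/ml Hoechst), and nuclei were counted on 4× images. Relative viability is the nuclei count in treated wells divided by the count in vehicle wells, and each value is the median of duplicate plates.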

Compound in the test “Alpelisib + Vorinostat”: Cc1nc(NC(=O)N2CCC[C@H]2C(N)=O)sc1-c1ccnc(C(C)(C)C(F)(F)F)c1 [Alpelisib] + O=C(CCCCCCC(=O)Nc1ccccc1)NO [Vorinostat] (partner 1 µM)
Put shortly:
as §1

Compound in the test “OSI-027 + Pemetrexed”: COc1cccc2cc(-c3nc([C@H]4CC[C@H](C(=O)O)CC4)n4ncnc(N)c34)[nH]c12 [OSI-027] + Nc1nc2[nH]cc(CCc3ccc(C(=O)N[C@@H](CCC(=O)O)C(=O)O)cc3)c2c(=O)[nH]1 [Pemetrexed] (partner 0.2 µM)
Put shortly:
as §1

Compound in the test “Vemurafenib + Bortezomib”: CCCS(=O)(=O)Nc1ccc(F)c(C(=O)c2c[nH]c3ncc(-c4ccc(Cl)cc4)cc23)c1F [Vemurafenib] + CC(C)C[C@H](NC(=O)[C@H](Cc1ccccc1)NC(=O)c1cnccn1)B(O)O [Bortezomib] (partner 0.002 µM)
Put shortly:
as §1

For H3255, the relative viability with Alpelisib + Foretinib (first compound 0.04 µM) turned out to be 0.973; with Alpelisib + Foretinib (first compound 0.1265 µM), 0.753; with Alpelisib + Foretinib (first compound 0.4 µM), 0.96; with Alpelisib + Foretinib (first compound 1.265 µM) it was 0.695; with Alpelisib + Foretinib (first compound 4 µM), 0.562; in the test with Alpelisib + Vorinostat (first compound 0.04 µM), 0.778. The relative viability stood at 0.733 in the test with Alpelisib + Vorinostat (first compound 0.1265 µM); 0.826 in the test with Alpelisib + Vorinostat (first compound 0.4 µM); 0.613 with Alpelisib + Vorinostat (first compound 1.265 µM); 0.496 in the test with Alpelisib + Vorinostat (first compound 4 µM); 0.517 in the test with OSI-027 + Pemetrexed (first compound 0.01 µM); 0.569 with OSI-027 + Pemetrexed (first compound 0.03162 µM). The relative viability worked out at 0.507 in the test with OSI-027 + Pemetrexed (first compound 0.1 µM); 0.513 with OSI-027 + Pemetrexed (first compound 0.3162 µM); 0.495 in the test with OSI-027 + Pemetrexed (first compound 1 µM); 0.802 with Vemurafenib + Bortezomib (first compound 0.03162 µM); 0.612 in the test with Vemurafenib + Bortezomib (first compound 0.3162 µM); 0.681 in the test with Vemurafenib + Bortezomib (first compound 1 µM).
Take NCI-H2087: the relative viability was 0.903 with Alpelisib + Foretinib (first compound 0.04 µM); 1.07 with Alpelisib + Foretinib (first compound 0.1265 µM); 1.31 in the test with Alpelisib + Foretinib (first compound 0.4 µM); 0.814 with Alpelisib + Foretinib (first compound 1.265 µM); 0.614 in the test with Alpelisib + Foretinib (first compound 4 µM); 0.808 with Alpelisib + Vorinostat (first compound 0.04 µM). Also, the relative viability stood at 0.669 with Alpelisib + Vorinostat (first compound 0.1265 µM); 0.583 in the test with Alpelisib + Vorinostat (first compound 0.4 µM); 0.647 with Alpelisib + Vorinostat (first compound 1.265 µM); 0.853 with Alpelisib + Vorinostat (first compound 4 µM); 0.696 with OSI-027 + Pemetrexed (first compound 0.01 µM); 0.674 in the test with OSI-027 + Pemetrexed (first compound 0.03162 µM). Moreover, the relative viability was determined as 0.694 with OSI-027 + Pemetrexed (first compound 0.1 µM); 0.533 in the test with OSI-027 + Pemetrexed (first compound 0.3162 µM); 0.338 with OSI-027 + Pemetrexed (first compound 1 µM); 0.759 with Vemurafenib + Bortezomib (first compound 0.03162 µM); 0.701 with Vemurafenib + Bortezomib (first compound 0.1 µM); 0.753 in the test with Vemurafenib + Bortezomib (first compound 1 µM).
RERF-LC-KJ: the relative viability was 0.779 with Alpelisib + Foretinib (first compound 0.04 µM); 0.773 with Alpelisib + Foretinib (first compound 0.1265 µM); 0.893 with Alpelisib + Foretinib (first compound 0.4 µM); 0.716 in the test with Alpelisib + Foretinib (first compound 1.265 µM); 0.696 with Alpelisib + Foretinib (first compound 4 µM); 0.634 in the test with Alpelisib + Vorinostat (first compound 0.04 µM). Besides, the relative viability was 0.707 in the test with Alpelisib + Vorinostat (first compound 0.1265 µM); 0.754 with Alpelisib + Vorinostat (first compound 0.4 µM); 0.504 with Alpelisib + Vorinostat (first compound 1.265 µM); 0.548 with Alpelisib + Vorinostat (first compound 4 µM); 0.466 with OSI-027 + Pemetrexed (first compound 0.01 µM); 0.48 with OSI-027 + Pemetrexed (first compound 0.03162 µM). Moreover, the relative viability was 0.464 with OSI-027 + Pemetrexed (first compound 0.1 µM); 0.463 with OSI-027 + Pemetrexed (first compound 0.3162 µM); 0.375 with OSI-027 + Pemetrexed (first compound 1 µM); 1.04 with Vemurafenib + Bortezomib (first compound 0.03162 µM); 1.06 in the test with Vemurafenib + Bortezomib (first compound 0.1 µM); 1.06 with Vemurafenib + Bortezomib (first compound 0.3162 µM). Also, the relative viability with Vemurafenib + Bortezomib (first compound 1 µM) is 1.19.
Consider NCI-H2228, for which the relative viability turned out to be 0.82 in the test with Alpelisib + Foretinib (first compound 0.04 µM); 0.927 with Alpelisib + Foretinib (first compound 0.1265 µM); 0.701 in the test with Alpelisib + Foretinib (first compound 0.4 µM); 0.613 with Alpelisib + Foretinib (first compound 1.265 µM); 0.404 with Alpelisib + Foretinib (first compound 4 µM); 0.714 with Alpelisib + Vorinostat (first compound 0.04 µM). Besides, the relative viability with Alpelisib + Vorinostat (first compound 0.1265 µM) was 0.48; with Alpelisib + Vorinostat (first compound 0.4 µM), 0.401; with Alpelisib + Vorinostat (first compound 1.265 µM), 0.566; with Alpelisib + Vorinostat (first compound 4 µM) it was 0.413; with OSI-027 + Pemetrexed (first compound 0.01 µM), 0.43; with OSI-027 + Pemetrexed (first compound 0.03162 µM), 0.348. The relative viability was 0.322 in the test with OSI-027 + Pemetrexed (first compound 0.1 µM); 0.327 with OSI-027 + Pemetrexed (first compound 0.3162 µM); 0.208 in the test with OSI-027 + Pemetrexed (first compound 1 µM); 1.03 in the test with Vemurafenib + Bortezomib (first compound 0.03162 µM); 1 with Vemurafenib + Bortezomib (first compound 0.1 µM); 1.24 in the test with Vemurafenib + Bortezomib (first compound 0.3162 µM). The relative viability with Vemurafenib + Bortezomib (first compound 1 µM) amounted to 1.15.
